From EPA's ToxValDB 9.5

Assays:
Rattus norvegicus = settings: subchronic; duration: 90 days; oral; diet; M/F; CD; Deaths + Body Weight Changes: decrease + Food Consumption: decrease + Hematology: RBC decrease, HGB decrease, HCT decrease, WBC decrease, …
Bird = settings: reproductive, in ovo, M/F, White leghorn chicken, generation: F1
[1] = test system: Crangonyx richmondensis ssp. laurentianus; settings: whole body, Monoporeia affinis, parasite infection
Labeo boga = settings: whole body, M/F
Monkey = settings: oral, capsule, Cynomolgus; for NOEL: short-term, duration: 29 days, blood: basophils + blood: eosinophils + blood: lymphocytes + blood: monocytes + blood: reticulocytes + blood: segmented neutrophils + blood…
Mus musculus = settings: oral
[2] = chronic, duration: 26 weeks, M, lymphocyte count (%) (Day 182)
[3] = developmental, duration: 16 days, gavage, F, B6C3F1, generation: F1, F1: spleen: spleen B220+ cells + F1: spleen: Splenic NK cell activity
[4] = developmental, duration: 16 days, gavage, M, B6C3F1, generation: F1, F1: IgM antibody titer (SRBC) + F1: thymus: thymus CD3+ cells + F1: thymus: thymus CD4+ cells
[5] = developmental, duration: 16 days, gavage, M, B6C3F1, generation: F1, F1: spleen: Splenic NK cell activity
[6] = short-term, duration: 7 days, gavage, M, BALB/c, spleen: lymphocyte proliferation (ConA)
[7] = short-term, duration: 7 days, gavage, M, BALB/c, spleen: spleen CD3+ cells (cells normalized to control)
[8] = short-term, duration: 7 days, gavage, M, C57BL/6, serum corticosterone + spleen: IFN-gamma levels + spleen: IL-2 secreting splenocytes + spleen: spleen: relative weight + thymus: thymus: …
[9] = short-term, duration: 7 days, gavage, M, C57BL/6, serum corticosterone + spleen: lymphocyte proliferation (LPS) + spleen: spleen cellularity + spleen: spleen: relative weight + spleen: …
[10] = short-term, duration: 7 days, gavage, M, C57BL/6, spleen: apoptotic splenocytes + spleen: spleen - mitochondrial membrane Rh123 fluorescence + spleen: spleen - ROS-DCF fluorescence + spleen…
[11] = short-term, duration: 7 days, gavage, M, C57BL/6, spleen: splenic DN (CD4-CD8-) cells
[12] = short-term, duration: 7 days, gavage, M, C57BL/6, spleen: splenocytes - CAT activity + spleen: splenocytes - GST activity + splenic lymphocyte protein - bax + splenic lymphocyte protein - …
[13] = short-term, duration: 10 days, diet, M, 129/SV, spleen: spleen CD19+ cells + spleen: spleen CD4+ cells + spleen: spleen CD8+ cells + spleen: spleen cellularity + spleen: spleen Pan-NK+ …
[14] = short-term, duration: 10 days, diet, M, C57BL/6, bone marrow: bone marrow cellularity + bone marrow: bone marrow: no. of CD19+ B-lymphoid cells + bone marrow: bone marrow: no. of Gr1+CD11b…
[15] = short-term, duration: 10 days, diet, M, C57BL/6, spleen: spleen CD19+ cells + spleen: spleen CD4+ cells + spleen: spleen CD8+ cells + spleen: spleen cellularity + spleen: spleen NK1.1+ …
[16] = short-term, duration: 10 days, diet, M, spleen: spleen: absolute weight + thymus: thymus CD4+ cells + thymus: thymus CD8+ cells + thymus: thymus cellularity + thymus: thymus DP (…
[17] = short-term, duration: 12 days, gavage, M, C57BL/6, body mass after exposure + spleen: spleen CD8+ cells + spleen: spleen: relative weight + thymus: thymus: relative weight
[18] = short-term, duration: 12 days, gavage, M, C57BL/6, spleen: spleen CD4+ cells + spleen: spleen cellularity
[19] = short-term, duration: 14 days, gavage, F, BALB/c, spleen: spleen: relative weight + thymus: percentage of apoptotic cells in thymus + thymus: thymus: relative weight
[20] = short-term, duration: 14 days, gavage, M, BALB/c, spleen: lymphocyte proliferation (ConA)

`O=S(=O)(O)C(F)(F)C(F)(F)C(F)(F)C(F)(F)C(F)(F)C(F)(F)C(F)(F)C(F)(F)F` [Perfluorooctanesulfonic acid] was tested, and the NOAEL (Rattus norvegicus) was under 2.88 mg/kg-day, the “LOEL (mg ion/kg egg)” value (Bird; F1: IgM and IgY antibody titer (SRBC) + F1: plasma lysozyme activity + F1: spleen: spleen: relative weight) was 0.93 and the “NOEL (mg ion/kg egg)” value (Bird; F1: IgM antibody titer (SRBC) + F1: IgY antibody titer (SRBC) + F1: lymph node: normalized bursa mass + F1: PHA skin test (DTH response) + …) was 4.6. For the same compound, the NOEL ([1]; short-term, duration: 22 day, M/F) was 0.2 mg/L, the LOEL ([1]; subchronic, duration: 5 week, F) was 0.01 mg/L and the NOEL (Labeo boga; short-term, duration: 7 day, Oryzias Melastigma, mRNA level for C8 gene + mRNA level for CAT gene + mRNA level for CCL20 gene + mRNA level for Cd3 gene + mRNA level for GPx gene) was 1 mg/L. It also gave an LOEL (Labeo boga; short-term, duration: 7 day, Oryzias Melastigma, mRNA level for IL1b gene) of 0.25 mg/L, an LOEL (Labeo boga; short-term, duration: 10 day, Medaka, relative IL-1-beta mRNA expression + relative IL-8 mRNA expression + relative TNF-alpha mRNA expression) of 1 mg/L and an NOEL (Labeo boga; short-term, duration: 16 day, Thicklip grey mullet, relative apoA1 expression in liver (Day 2) + relative cc3 expression in liver (Day 16) + relative cc3 expression in liver (Day 2) + relative…) of 2 ppm. For the same compound, the LOEL (Labeo boga; short-term, duration: 16 day, Thicklip grey mullet, relative apoA1 expression in liver (Day 16) + relative fabp expression in liver (Day 2)) was 2 ppm, the LOEL (Labeo boga; short-term, duration: 21 day, Atlantic Salmon, cortisol) was 0.1 mg/L and the LOEL (Labeo boga; subchronic, duration: 48 day, Atlantic Salmon, cortisol) was 0.1 mg/L. For the same compound, the NOEL (Labeo boga; subchronic, duration: 48 day, Atlantic Salmon, fresh weight + length + thymus: thymus somatic index + thymus: thymus volume) was 0.1 mg/L, the LOEL (Labeo boga; subchronic, duration: 56 day, Atlantic Salmon, cortisol) was 0.1 mg/L and the “NOEL (TAD)” value (Monkey; chronic, duration: 26 weeks, F, lymphocyte count (Day 182) + lymphocyte count (LYMPH) (Day 182) + segmented neutrophil count (Day 182) + segmented neutrophil count (N-SEG…) was 115 mg/kg-day. The “LOEL (TAD)” value (Monkey; [2]) was 115 mg/kg-day, the “NOEL (TAD)” value (Monkey; [2]) was 22.9 mg/kg-day and the “NOEL (TAD)” value (Monkey; chronic, duration: 26 weeks, M, lymphocyte count (LYMPH) (Day 182) + segmented neutrophil count (%) (Day 182) + segmented neutrophil count (N-SEG) (Day 182)) was 115 mg/kg-day. It also gave an NOEL (Monkey; F) of 2 mg/kg-day, an NOEL (Monkey; M) of 2 mg/kg-day and an NOEL (Mus musculus; developmental, duration: 16 days, gavage, F, B6C3F1, generation: F1, F1: body weight (4 weeks of age) + F1: body weight (8 weeks of age) + F1: IgM antibody titer (SRBC) + F1: spleen: spleen CD3+ cells + F1: …) of 5 mg/kg-day. The LOEL (Mus musculus; [3]) was 5 mg/kg-day, the NOEL (Mus musculus; [3]) was 1 mg/kg-day and the LOEL (Mus musculus; [4]) was 5 mg/kg-day. The NOEL (Mus musculus; [4]) was 1 mg/kg-day, the NOEL (Mus musculus; developmental, duration: 16 days, gavage, M, B6C3F1, generation: F1, F1: body weight (4 weeks of age) + F1: body weight (8 weeks of age) + F1: spleen: spleen B220+ cells + F1: spleen: spleen CD3+ cells + F1: …) was 5 mg/kg-day and the LOEL (Mus musculus; [5]) was 1 mg/kg-day. It also gave an NOEL (Mus musculus; [5]) of 0.1 mg/kg-day, an NOEL (Mus musculus; reproduction developmental, diet, M/F, BALB/c, generation: F1, F1: airway MCh sensitivity + F1: airway resistance (at 25 mg/mL methacholine) + F1: lung: BALF inflammatory cell counts: eosinophils + F1: …) of 4 ppm and an LOEL (Mus musculus; reproduction developmental, diet, M/F, BALB/c, generation: F1, F1: airway MCh sensitivity + F1: lung: BALF inflammatory cell counts: macrophages + F1: lung: BALF inflammatory cell counts: total cell …) of 4 ppm. It also gave an NOEL (Mus musculus; short-term, duration: 3 weeks, gavage, F, BALB/c, IgM antibody level (TNP 1:200) + IgM antibody level (TNP 1:50)) of 20 mg/kg-day, an LOEL (Mus musculus; short-term, duration: 7 days, gavage, F, BALB/c, Peripheral blood phagocytosis (HEMA) + spleen: lymphocyte proliferation (ConA) + spleen: spleen cellularity + spleen: Splenic NK cell …) of 20 mg/kg-day and an NOEL (Mus musculus; short-term, duration: 7 days, gavage, F, BALB/c, spleen: lymphocyte proliferation (LPS) + spleen: spleen CD4+ cells + spleen: spleen CD49b+ cells + spleen: spleen CD8+ cells + spleen: …) of 20 mg/kg-day. The LOEL (Mus musculus; [6]) was 10 mg/kg-day, the NOEL (Mus musculus; [6]) was 5 mg/kg-day and the LOEL (Mus musculus; [7]) was 5 mg/kg-day. The NOEL (Mus musculus; [7]) was 2.5 mg/kg-day, the NOEL (Mus musculus; short-term, duration: 7 days, gavage, M, BALB/c, spleen: spleen CD3+ cells + spleen: spleen CD3+CD4+ cells + spleen: spleen CD3+CD4+ cells (cells normalized to control) + spleen: spleen CD3…) was 10 mg/kg-day and the LOEL (Mus musculus; short-term, duration: 7 days, gavage, M, C57BL/6, IgM antibody-secreting cells (SRBC) + spleen: lymphocyte proliferation (ConA)) was 5 mg/kg-day. It also gave an LOEL (Mus musculus; [8]) of 20 mg/kg-day, an NOEL (Mus musculus; [8]) of 5 mg/kg-day and an LOEL (Mus musculus; [9]) of 20 mg/kg-day. The NOEL (Mus musculus; [9]) was 5 mg/kg-day, the LOEL (Mus musculus; short-term, duration: 7 days, gavage, M, C57BL/6, spleen: IL-4 levels + Total serum IgG level + Total serum IgM level) was 5 mg/kg-day and the NOEL (Mus musculus; short-term, duration: 7 days, gavage, M, C57BL/6, spleen: IL-10 secreting splenocytes) was 20 mg/kg-day. The LOEL (Mus musculus; [10]) was 5 mg/kg-day, the NOEL (Mus musculus; [10]) was 1 mg/kg-day and the NOEL (Mus musculus; short-term, duration: 7 days, gavage, M, C57BL/6, spleen: spleen: relative weight + thymus: thymus: relative weight) was 10 mg/kg-day. It also gave an LOEL (Mus musculus; [11]) of 40 mg/kg-day, an NOEL (Mus musculus; [11]) of 20 mg/kg-day and an NOEL (Mus musculus; short-term, duration: 7 days, gavage, M, C57BL/6, spleen: splenic DP (CD4+CD8+) cells) of 40 mg/kg-day. It also gave an LOEL (Mus musculus; [12]) of 10 mg/kg-day, an NOEL (Mus musculus; [12]) of 5 mg/kg-day and an LOEL (Mus musculus; [13]) of 0.02%. The NOEL (Mus musculus; [13]) was 0.005%, the NOEL (Mus musculus; short-term, duration: 10 days, diet, M, C57BL/6, blood serum: IL-6 levels (+LPS in vivo) + blood serum: TNF-alpha levels + blood serum: TNF-alpha levels (+LPS in vivo) + bone marrow: IL-6 …) was 0.02% and the LOEL (Mus musculus; short-term, duration: 10 days, diet, M, C57BL/6, blood serum: IL-6 levels + bone marrow: IL-6 levels (+ LPS in vitro) + bone marrow: IL-6 levels (+ LPS in vivo) + bone marrow: percent …) was 0.02%. For the same compound, the LOEL (Mus musculus; [14]) was 0.02%, the NOEL (Mus musculus; [14]) was 0.002% and the NOEL (Mus musculus; short-term, duration: 10 days, diet, M, C57BL/6, bone marrow: bone marrow: no. of early mature CD19+CD138-IgM+ B cells) was 0.02%. The LOEL (Mus musculus; short-term, duration: 10 days, diet, M, C57BL/6, intrahepatic immune cells: TER119 (erythroid progenitor) + liver: IFN-gamma levels + liver: IL-4 levels + liver: TNF-alpha levels) was 0.005%, the NOEL (Mus musculus; short-term, duration: 10 days, diet, M, C57BL/6, intrahepatic immune cells: all leukocytes (CD45+) + intrahepatic immune cells: B cells (CD19+) + intrahepatic immune cells: CD138 (plasma …) was 0.005% and the LOEL (Mus musculus; short-term, duration: 10 days, diet, M, C57BL/6, liver: IFN-gamma levels + liver: IFN-gamma levels (+Con A) + liver: IL-4 levels + liver: IL-4 levels (+Con A) + liver: TNF-alpha levels + …) was 0.004%. The LOEL (Mus musculus; [15]) was 0.02%, the NOEL (Mus musculus; [15]) was 0.005% and the NOEL (Mus musculus; short-term, duration: 10 days, diet, M, spleen: spleen CD19+ cells + spleen: spleen CD4+ cells + spleen: spleen CD8+ cells + spleen: spleen cellularity + spleen: spleen Pan-NK+ …) was 0.02%. For the same compound, the LOEL (Mus musculus; [16]) was 0.02%, the NOEL (Mus musculus; [16]) was 0.005% and the LOEL (Mus musculus; [17]) was 10 mg/kg-day. The NOEL (Mus musculus; [17]) was 5 mg/kg-day, the LOEL (Mus musculus; [18]) was 20 mg/kg-day and the NOEL (Mus musculus; [18]) was 10 mg/kg-day. It also gave an LOEL (Mus musculus; [19]) of 20 mg/kg-day, an NOEL (Mus musculus; [19]) of 5 mg/kg-day and an NOEL (Mus musculus; short-term, duration: 14 days, gavage, M, BALB/c, spleen mRNA expression of IL-1Beta + thymus mRNA expression of IL-1Beta + thymus: percentage of apoptotic cells in thymus + thymus: thymus: …) of 20 mg/kg-day. For the same compound, the LOEL (Mus musculus; [20]) was 10 mg/kg-day and the NOEL (Mus musculus; [20]) was 5 mg/kg-day.
